Test results published in ChEMBL document CHEMBL3808333, “Design, synthesis and anticonvulsant activity of new hybrid compounds derived from N-phenyl-2-(2,5-dioxopyrrolidin-1-yl)-propanamides and -butanamides” (Bioorg Med Chem, 2016).
Active and inactive are the calls of the source. The calls are words filed in the database; no cut-off is given here.

Assays:
Mus musculus [1] = assay: Anticonvulsant activity in albino Swiss mouse assessed as protection against maximal electroshock-induced seizures pretreated for 2 hrs at 100 mg/kg, ip by maximal electroshock seizure test; assay type: functional, organism-based
[2] = Protective index, ratio of TD50 for acute neurotoxicity in albino Swiss mouse to ED50 for anticonvulsant activity in albino Swiss mouse by subcutaneous pentylenetetrazole seizure test; assay type: toxicity, organism-based; conditions: in vivo, read-out: Ratio TD50/ED50
Mus musculus [3] = assay: Acute neurotoxicity in albino Swiss mouse pretreated for 0.5 hrs at 100 mg/kg, ip by rotorod test; assay type: toxicity, organism-based; conditions: in vivo
Mus musculus [4] = species: Mus musculus; assay: Anticonvulsant activity in albino Swiss mouse by maximal electroshock seizure test; assay type: functional
Mus musculus [5] = assay: Anticonvulsant activity in albino Swiss mouse assessed as protection against maximal electroshock-induced seizures pretreated for 0.5 hrs at 100 mg/kg, ip by maximal electroshock seizure test; assay type: functional
Mus musculus [6] = assay: Anticonvulsant activity in albino Swiss mouse assessed as protection against electrically-induced seizure pretreated for 0.5 hrs at 100 mg/kg, ip by 6Hz psychomotor seizure test; assay type: functional
[7] = Protective index, ratio of TD50 for acute neurotoxicity in albino Swiss mouse to ED50 for anticonvulsant activity in albino Swiss mouse by maximal electroshock seizure test; assay type: toxicity, organism-based; conditions: in vivo, read-out: Ratio TD50/ED50
[8] = Acute neurotoxicity in albino Swiss mouse pretreated for 2 hrs by rotorod test; assay type: toxicity, organism-based; conditions: in vivo
Mus musculus [9] = species: Mus musculus; assay: Anticonvulsant activity in albino Swiss mouse assessed as protection against electrically-induced seizure by 6Hz psychomotor seizure test; assay type: functional
Mus musculus [10] = assay: Anticonvulsant activity in albino Swiss mouse assessed as protection against electrically-induced seizure pretreated for 2 hrs at 100 mg/kg, ip by 6Hz psychomotor seizure test; assay type: functional, organism-based
Mus musculus [11] = assay: Anticonvulsant activity in albino Swiss mouse assessed as reduction in clonic seizures pretreated for 0.5 hrs at 100 mg/kg, ip measured after 30 mins by subcutaneous pentylenetetrazole seizure test; assay type: functional; set-up: scale not given: the % may be the effect or the level left
[12] = Protective index, ratio of TD50 for acute neurotoxicity in albino Swiss mouse to ED50 for anticonvulsant activity in albino Swiss mouse by 6Hz psychomotor seizure test; assay type: toxicity, organism-based; conditions: in vivo, read-out: Ratio TD50/ED50
Mus musculus [13] = assay: Anticonvulsant activity against albino Swiss mouse seizure model assessed as time to peak effect at 100 mg/kg, ip; assay type: functional
Mus musculus [14] = assay: Anticonvulsant activity in albino Swiss mouse measured after 30 mins by subcutaneous pentylenetetrazole seizure test; assay type: functional; conditions: sc, 0.5 h
Rattus norvegicus [15] = species: Rattus norvegicus; assay: Displacement of [3H]nitrendipine from L-type calcium channel dihydropyridine site in rat cerebral cortex synaptoneurosomes at 100 uM measured after 90 mins by scintillation counting method; assay type: tissue-based
Rattus norvegicus [16] = species: Rattus norvegicus; assay: Displacement of [125I]omega-Conotoxin GVIA from N-type calcium channel in rat cerebral cortex synaptoneurosomes at 100 uM measured after 30 mins by scintillation counting method; assay type: tissue-based
Rattus norvegicus [17] = species: Rattus norvegicus; assay: Displacement of [3H]D888 from L-type calcium channel verapamil binding site in rat cerebral cortex synaptoneurosomes at 200 uM measured after 120 mins by scintillation counting method; assay type: tissue-based
Rattus norvegicus [18] = species: Rattus norvegicus; assay: Displacement of [3H]diltiazem from L-type calcium channel diltiazem binding site in rat cerebral cortex synaptoneurosomes at 200 uM measured after 120 mins by scintillation counting method; assay type: tissue-based
Rattus norvegicus [19] = species: Rattus norvegicus; assay: Displacement of [3H]nitrendipine from L-type calcium channel dihydropyridine site in rat cerebral cortex synaptoneurosomes at 200 uM measured after 90 mins by scintillation counting method; assay type: tissue-based
Rattus norvegicus [20] = species: Rattus norvegicus; assay: Displacement of [125I]omega-Conotoxin GVIA from N-type calcium channel in rat cerebral cortex synaptoneurosomes at 200 uM measured after 30 mins by scintillation counting method; assay type: tissue-based
Rattus norvegicus [21] = species: Rattus norvegicus; assay: Displacement of [3H]D888 from L-type calcium channel verapamil binding site in rat cerebral cortex synaptoneurosomes at 100 uM measured after 120 mins by scintillation counting method; assay type: tissue-based
Rattus norvegicus [22] = species: Rattus norvegicus; assay: Displacement of [3H]Batrachotoxinin from voltage-sensitive sodium channel site 2 in rat cerebral cortex synaptoneurosomes at 500 uM measured after 60 mins by scintillation counting method; assay type: tissue-based
Rattus norvegicus [23] = species: Rattus norvegicus; assay: Displacement of [3H]diltiazem from L-type calcium channel diltiazem binding site in rat cerebral cortex synaptoneurosomes at 100 uM measured after 120 mins by scintillation counting method; assay type: tissue-based
Mus musculus [24] = assay: Acute neurotoxicity in albino Swiss mouse pretreated for 2 hrs at 100 mg/kg, ip by rotorod test; assay type: toxicity, organism-based; conditions: in vivo
Rattus norvegicus [25] = species: Rattus norvegicus; assay: Displacement of [3H]Batrachotoxinin from voltage-sensitive sodium channel site 2 in rat cerebral cortex synaptoneurosomes at 100 uM measured after 60 mins by scintillation counting method; assay type: tissue-based
Mus musculus [26] = assay: Anticonvulsant activity in albino Swiss mouse assessed as reduction in clonic seizures pretreated for 2 hrs at 100 mg/kg, ip measured after 30 mins by subcutaneous pentylenetetrazole seizure test; assay type: functional, organism-based
Rattus norvegicus [27] = species: Rattus norvegicus; assay: Displacement of [3H]Batrachotoxinin from voltage-sensitive sodium channel site 2 in rat cerebral cortex synaptoneurosomes at 200 uM measured after 60 mins by scintillation counting method; assay type: tissue-based

SMILES: CC(C(=O)Nc1ccc(C(F)(F)F)cc1)N1C(=O)CCC1=O (stereo not given)
- Activity (Mus musculus [1]): inactive

SMILES: CC(C(=O)Nc1cccc(Cl)c1)N1C(=O)CCC1=O (stereo not given)
- Activity (Mus musculus [1]): inactive
- selectivity ratio [2]: > 5.7
- Activity (Mus musculus [3]): 50%
- ED50 (Mus musculus [4]): 105 mg/kg
- Activity (Mus musculus [5]): 75%
- Activity (Mus musculus [6]): 75%
- selectivity ratio [7]: > 4.8
- TD50 at 2 h [8]: > 500 mg/kg
- ED50 (Mus musculus [9]): 74.5 mg/kg
- Activity (Mus musculus [10]): inactive
- Activity (Mus musculus [11]): 75%
- selectivity ratio [12]: > 6.7
- Time (Mus musculus [13]): 0.5 h
- ED50 (Mus musculus [14]): 87.7 mg/kg

SMILES: CC1CC(=O)N(C(C)C(=O)Nc2cccc(C(F)(F)F)c2)C1=O (stereo not given)
- Activity (Mus musculus [1]): inactive
- Activity (Mus musculus [5]): inactive

SMILES: CC1CC(=O)N(C(C)C(=O)Nc2ccc(Cl)cc2)C1=O (stereo not given)
- Activity (Mus musculus [1]): inactive

SMILES: CCC(C(=O)Nc1ccc(F)cc1)N1C(=O)CCC1=O (stereo not given)
- Activity (Mus musculus [1]): inactive
- Activity (Mus musculus [5]): inactive

SMILES: CC(C(=O)Nc1cccc(C(F)(F)F)c1)N1C(=O)CCC1=O (stereo not given)
- Activity (Mus musculus [5]): inactive

SMILES: CC(C(=O)Nc1cccc(F)c1)N1C(=O)CCC1=O (stereo not given)
- Activity (Mus musculus [1]): inactive

SMILES: NC(=O)N1c2ccccc2C=Cc2ccccc21
- inhibition (Rattus norvegicus [15]): 2.6%
- inhibition (Rattus norvegicus [16]): -2.9%
- inhibition (Rattus norvegicus [17]): 7.5%
- inhibition (Rattus norvegicus [18]): 7.3%
- inhibition (Rattus norvegicus [19]): 3.6%
- inhibition (Rattus norvegicus [20]): 1.9%
- inhibition (Rattus norvegicus [21]): 8.8%
- inhibition (Rattus norvegicus [22]): 33.6%
- inhibition (Rattus norvegicus [23]): 1.1%

SMILES: CC1CC(=O)N(C(C)C(=O)Nc2cccc(F)c2)C1=O (stereo not given)
- Activity (Mus musculus [1]): inactive

SMILES: CCC(C(=O)Nc1cccc(F)c1)N1C(=O)CCC1=O (stereo not given)
- Activity (Mus musculus [1]): inactive
- Activity (Mus musculus [24]): Non-toxic
- ED50 (Mus musculus [4]): 121 mg/kg
- Activity (Mus musculus [5]): 75%
- Activity (Mus musculus [6]): Active
- selectivity ratio [7]: 2.9
- TD50 at 2 h [8]: 346 mg/kg
- ED50 (Mus musculus [9]): 41.4 mg/kg
- Activity (Mus musculus [10]): inactive
- selectivity ratio [12]: 8.4
- Time (Mus musculus [13]): 0.5 h

SMILES: CCCC(CCC)C(=O)O [VALPROIC ACID]
- Time (Mus musculus [13]): 0.5 h

SMILES: CCC(C(=O)Nc1ccc(Cl)cc1)N1C(=O)CCC1=O (stereo not given)
- Activity (Mus musculus [1]): inactive
- Activity (Mus musculus [5]): inactive

SMILES: CC[C@@H](C(N)=O)N1CCCC1=O
- ED50 (Mus musculus [4]): > 500 mg/kg
- TD50 at 2 h [8]: > 500 mg/kg
- Time (Mus musculus [13]): 1 h
- ED50 (Mus musculus [14]): > 500 mg/kg

SMILES: CCC(C(=O)Nc1ccc(C(F)(F)F)cc1)N1C(=O)CCC1=O (stereo not given)
- Activity (Mus musculus [1]): inactive
- Activity (Mus musculus [5]): inactive

SMILES: CC(C(=O)Nc1ccccc1)N1C(=O)CCC1=O (racemic)
- inhibition (Rattus norvegicus [25]): 26.4%
- inhibition (Rattus norvegicus [15]): -7.7%
- inhibition (Rattus norvegicus [16]): -6.5%
- inhibition (Rattus norvegicus [17]): -3.2%
- selectivity ratio [2]: 4.4
- ED50 (Mus musculus [4]): 96.9 mg/kg
- Activity (Mus musculus [26]): inactive
- Activity (Mus musculus [5]): 50%
- Activity (Mus musculus [6]): Active
- inhibition (Rattus norvegicus [18]): 43.7%
- selectivity ratio [7]: 3.5
- inhibition (Rattus norvegicus [27]): 55.2%
- TD50 at 2 h [8]: 336 mg/kg
- inhibition (Rattus norvegicus [19]): 2.9%
- ED50 (Mus musculus [9]): 44.3 mg/kg
- Activity (Mus musculus [11]): Active
- selectivity ratio [12]: 7.6
- inhibition (Rattus norvegicus [20]): 1.3%
- inhibition (Rattus norvegicus [21]): -0.8%
- Time (Mus musculus [13]): 0.5 h
- ED50 (Mus musculus [14]): 75.4 mg/kg
- inhibition (Rattus norvegicus [23]): 10.8%

SMILES: CC(C(=O)Nc1ccc(Cl)cc1)N1C(=O)CCC1=O (stereo not given)
- Activity (Mus musculus [5]): inactive

SMILES: CCC(C(=O)Nc1cccc(C(F)(F)F)c1)N1C(=O)CCC1=O (stereo not given)
- Activity (Mus musculus [1]): inactive
- Activity (Mus musculus [5]): inactive

SMILES: CC1CC(=O)N(C(C)C(=O)Nc2cccc(Cl)c2)C1=O (stereo not given)
- Activity (Mus musculus [24]): Non-toxic
- selectivity ratio [2]: 4.8
- Activity (Mus musculus [3]): Non-toxic
- ED50 (Mus musculus [4]): 80.6 mg/kg
- Activity (Mus musculus [26]): inactive
- Activity (Mus musculus [5]): 75%
- Activity (Mus musculus [6]): 75%
- selectivity ratio [7]: 3.5
- TD50 at 2 h [8]: 279 mg/kg
- ED50 (Mus musculus [9]): 88.2 mg/kg
- Activity (Mus musculus [11]): 75%
- selectivity ratio [12]: 3.2
- Time (Mus musculus [13]): 0.5 h
- ED50 (Mus musculus [14]): 58.4 mg/kg

SMILES: CC(C(=O)Nc1ccc(F)cc1)N1C(=O)CCC1=O (stereo not given)
- Activity (Mus musculus [1]): inactive
- Activity (Mus musculus [5]): inactive

SMILES: CCC1(C)CC(=O)NC1=O (stereo not given) [ETHOSUXIMIDE]
- selectivity ratio [2]: 4.9
- ED50 (Mus musculus [4]): > 500 mg/kg
- ED50 (Mus musculus [9]): > 200 mg/kg
- Time (Mus musculus [13]): 0.5 h
- ED50 (Mus musculus [14]): 148 mg/kg

SMILES: CCC(C(=O)Nc1cccc(Cl)c1)N1C(=O)CCC1=O (stereo not given)
- Activity (Mus musculus [1]): inactive
- Activity (Mus musculus [24]): Non-toxic
- ED50 (Mus musculus [4]): > 130 mg/kg
- Activity (Mus musculus [5]): 75%
- Activity (Mus musculus [6]): 75%
- TD50 at 2 h [8]: > 500 mg/kg
- ED50 (Mus musculus [9]): 43.4 mg/kg
- Activity (Mus musculus [10]): inactive
- Activity (Mus musculus [11]): 50%
- selectivity ratio [12]: > 11.5
- Time (Mus musculus [13]): 0.5 h
- ED50 (Mus musculus [14]): > 130 mg/kg

SMILES: CC1CC(=O)N(C(C)C(=O)Nc2ccccc2)C1=O (stereo not given)
- Activity (Mus musculus [1]): inactive

SMILES: CC1CC(=O)N(C(C)C(=O)Nc2ccc(F)cc2)C1=O (stereo not given)
- Activity (Mus musculus [1]): inactive
- Activity (Mus musculus [5]): inactive

SMILES: CC1CC(=O)N(C(C)C(=O)Nc2ccc(C(F)(F)F)cc2)C1=O (stereo not given)
- Activity (Mus musculus [1]): inactive
- Activity (Mus musculus [5]): inactive

SMILES: CCC(C(=O)Nc1ccccc1)N1C(=O)CCC1=O (stereo not given)
- Activity (Mus musculus [24]): Non-toxic
- selectivity ratio [2]: 5.3
- Activity (Mus musculus [3]): Non-toxic
- ED50 (Mus musculus [4]): 116 mg/kg
- Activity (Mus musculus [26]): inactive
- Activity (Mus musculus [5]): 75%
- Activity (Mus musculus [6]): Active
- selectivity ratio [7]: 3.4
- TD50 at 2 h [8]: 398 mg/kg
- ED50 (Mus musculus [9]): 69.3 mg/kg
- Activity (Mus musculus [10]): inactive
- Activity (Mus musculus [11]): 75%
- selectivity ratio [12]: 5.7
- Time (Mus musculus [13]): 0.5 h
- ED50 (Mus musculus [14]): 75.4 mg/kg

SMILES: COC[C@@H](NC(C)=O)C(=O)NCc1ccccc1 [LACOSAMIDE]
- ED50 (Mus musculus [4]): 9.4 mg/kg
- ED50 (Mus musculus [9]): 6.4 mg/kg
- selectivity ratio [12]: 5.3
- Time (Mus musculus [13]): 0.5 h
- ED50 (Mus musculus [14]): > 500 mg/kg
